# Test results taken from ChEMBL document CHEMBL1201862, “PubChem BioAssay data set” (2004).
#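 How tested: cells in 96-well plates exposed to compound for 48 hours at five concentrations. GI50 = concentration required for 50% inhibition of growth.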 The source made the active and inactive calls. No stated cut-off is given here; in the data, active = GI50 up to about 1.1 µM and inactive = higher.
# Assays:
# Assay in all cases: NCI anticancer screen, dose series, 48 h
# KM12 = test system: KM12
# OVCAR-5 = test system: OVCAR-5
# MOLT-4 = test system: MOLT-4
# K562 = test system: K562
# M14 = test system: M14
# SF-268 = test system: SF-268
# HOP-92 = test system: HOP-92
# ACHN = test system: ACHN
# OVCAR-3 = test system: OVCAR-3
# LOX IMVI = test system: LOX IMVI
# PC-3 = test system: PC-3
# SK-MEL-2 = test system: SK-MEL-2
# SNB-75 = test system: SNB-75
# SN12C = test system: SN12C
# HT-29 = test system: HT-29
# HOP-62 = test system: HOP-62
# SNB-19 = test system: SNB-19
# CAKI-1 = test system: CAKI-1
# A549 = test system: A549
# OVCAR-8 = test system: OVCAR-8
# SK-MEL-28 = test system: SK-MEL-28
# UACC-257 = test system: UACC-257
# 786-0 = test system: 786-0
# NCI-H460 = test system: NCI-H460
# NCI-H23 = test system: NCI-H23
# A498 = test system: A498
# NCI/ADR-RES = test system: NCI/ADR-RES
# RXF 393 = test system: RXF 393
# HL-60 = test system: HL-60
# TK-10 = test system: TK-10
# COLO 205 = test system: COLO 205
# SF-295 = test system: SF-295
# SK-OV-3 = test system: SK-OV-3
# SK-MEL-5 = test system: SK-MEL-5
# NCI-H522 = test system: NCI-H522
# OVCAR-4 = test system: OVCAR-4
# Hs-578T = test system: Hs-578T
# U-251 = test system: U-251
# MDA-MB-435 = test system: MDA-MB-435
# SW-620 = test system: SW-620
# MDA-N = test system: MDA-N
# MCF7 = test system: MCF7
# IGROV-1 = test system: IGROV-1
# Malme-3M = test system: Malme-3M
# HCT-116 = test system: HCT-116
# RPMI-8226 = test system: RPMI-8226
# DU-145 = test system: DU-145
# HCC 2998 = test system: HCC 2998
# UO-31 = test system: UO-31
# T47D = test system: T47D
# SR = test system: SR
# EKVX = test system: EKVX
# HCT-15 = test system: HCT-15
# MDA-MB-231 = test system: MDA-MB-231
# BT-549 = test system: BT-549
# UACC-62 = test system: UACC-62
# SF-539 = test system: SF-539
# CCRF-CEM = test system: CCRF-CEM
# NCI-H226 = test system: NCI-H226
structure (smiles),measurement,setting,value
O=C(NCCN1CCCCC1)c1ccc(Br)cc1,GI50,KM12,> 100 µM (inactive)
same,GI50,OVCAR-5,> 100 µM (inactive)
same,GI50,MOLT-4,> 100 µM (inactive)
same,GI50,K562,> 100 µM (inactive)
same,GI50,M14,> 100 µM (inactive)
same,GI50,SF-268,> 100 µM (inactive)
same,GI50,HOP-92,> 100 µM (inactive)
same,GI50,ACHN,> 100 µM (inactive)
same,GI50,OVCAR-3,> 100 µM (inactive)
same,GI50,LOX IMVI,> 100 µM (inactive)
same,GI50,PC-3,> 100 µM (inactive)
same,GI50,SK-MEL-2,> 100 µM (inactive)
same,GI50,SNB-75,54.3 µM (inactive)
same,GI50,SN12C,> 100 µM (inactive)
same,GI50,HT-29,> 100 µM (inactive)
same,GI50,HOP-62,> 100 µM (inactive)
same,GI50,SNB-19,> 100 µM (inactive)
same,GI50,CAKI-1,> 100 µM (inactive)
same,GI50,A549,> 100 µM (inactive)
same,GI50,OVCAR-8,> 100 µM (inactive)
same,GI50,SK-MEL-28,> 100 µM (inactive)
same,GI50,UACC-257,> 100 µM (inactive)
same,GI50,786-0,> 100 µM (inactive)
same,GI50,NCI-H460,> 100 µM (inactive)
same,GI50,NCI-H23,> 100 µM (inactive)
same,GI50,A498,42.8 µM (inactive)
same,GI50,NCI/ADR-RES,> 100 µM (inactive)
same,GI50,RXF 393,> 100 µM (inactive)
same,GI50,HL-60,2.81 µM (inactive)
same,GI50,TK-10,> 100 µM (inactive)
same,GI50,COLO 205,> 100 µM (inactive)
same,GI50,SF-295,> 100 µM (inactive)
same,GI50,SK-OV-3,> 100 µM (inactive)
same,GI50,SK-MEL-5,> 100 µM (inactive)
same,GI50,NCI-H522,> 100 µM (inactive)
same,GI50,OVCAR-4,> 100 µM (inactive)
same,GI50,Hs-578T,> 100 µM (inactive)
same,GI50,U-251,> 100 µM (inactive)
same,GI50,MDA-MB-435,> 100 µM (inactive)
same,GI50,SW-620,> 100 µM (inactive)
same,GI50,MDA-N,> 100 µM (inactive)
same,GI50,MCF7,> 100 µM (inactive)
same,GI50,IGROV-1,> 100 µM (inactive)
same,GI50,Malme-3M,> 100 µM (inactive)
same,GI50,HCT-116,> 100 µM (inactive)
same,GI50,RPMI-8226,> 100 µM (inactive)
same,GI50,DU-145,> 100 µM (inactive)
same,GI50,HCC 2998,> 100 µM (inactive)
same,GI50,UO-31,> 100 µM (inactive)
same,GI50,T47D,> 100 µM (inactive)
same,GI50,SR,> 100 µM (inactive)
same,GI50,EKVX,> 100 µM (inactive)
same,GI50,HCT-15,> 100 µM
same,GI50,MDA-MB-231,> 100 µM (inactive)
same,GI50,BT-549,> 100 µM (inactive)
CO/[N+]([O-])=C\C(=O)N/C=C/C(=O)O,GI50,KM12,> 100 µM (inactive)
same,GI50,OVCAR-5,> 100 µM (inactive)
same,GI50,MOLT-4,> 100 µM (inactive)
same,GI50,UACC-62,> 100 µM (inactive)
same,GI50,SF-539,> 100 µM (inactive)
same,GI50,K562,> 100 µM (inactive)
same,GI50,M14,> 100 µM (inactive)
same,GI50,SF-268,> 100 µM (inactive)
same,GI50,HOP-92,> 100 µM (inactive)
same,GI50,ACHN,> 100 µM (inactive)
same,GI50,OVCAR-3,> 100 µM (inactive)
same,GI50,LOX IMVI,> 100 µM (inactive)
same,GI50,PC-3,> 100 µM (inactive)
same,GI50,SNB-75,> 100 µM (inactive)
same,GI50,SN12C,> 100 µM (inactive)
same,GI50,HT-29,> 10 µM (inactive)
same,GI50,HOP-62,> 100 µM (inactive)
same,GI50,SNB-19,> 100 µM (inactive)
same,GI50,CAKI-1,> 100 µM (inactive)
same,GI50,OVCAR-8,> 100 µM (inactive)
same,GI50,SK-MEL-28,> 100 µM (inactive)
same,GI50,UACC-257,> 100 µM (inactive)
same,GI50,786-0,> 100 µM (inactive)
same,GI50,NCI-H460,> 100 µM (inactive)
same,GI50,NCI-H23,> 100 µM (inactive)
same,GI50,A498,> 100 µM (inactive)
same,GI50,NCI/ADR-RES,> 100 µM (inactive)
same,GI50,RXF 393,> 100 µM (inactive)
same,GI50,HL-60,> 100 µM (inactive)
same,GI50,COLO 205,> 100 µM (inactive)
same,GI50,SF-295,> 100 µM (inactive)
same,GI50,SK-OV-3,> 100 µM (inactive)
same,GI50,SK-MEL-5,> 100 µM (inactive)
same,GI50,CCRF-CEM,> 100 µM (inactive)
same,GI50,NCI-H226,> 100 µM (inactive)
same,GI50,NCI-H522,> 100 µM (inactive)
same,GI50,OVCAR-4,> 100 µM (inactive)
same,GI50,Hs-578T,> 100 µM (inactive)
same,GI50,U-251,> 100 µM (inactive)
same,GI50,MDA-MB-435,> 100 µM (inactive)
same,GI50,SW-620,> 100 µM (inactive)
same,GI50,MDA-N,> 100 µM (inactive)
same,GI50,MCF7,> 100 µM (inactive)
same,GI50,IGROV-1,> 100 µM (inactive)
same,GI50,Malme-3M,> 100 µM (inactive)
same,GI50,HCT-116,> 100 µM (inactive)
same,GI50,RPMI-8226,79.6 µM (inactive)
same,GI50,DU-145,> 100 µM (inactive)
same,GI50,HCC 2998,> 100 µM (inactive)
same,GI50,UO-31,> 100 µM (inactive)
same,GI50,T47D,> 100 µM (inactive)
same,GI50,SR,> 100 µM (inactive)
same,GI50,EKVX,> 100 µM (inactive)
same,GI50,HCT-15,> 100 µM
same,GI50,MDA-MB-231,> 100 µM (inactive)
same,GI50,BT-549,> 100 µM (inactive)
CCOC(=O)/C=C(/OCC)[C@@H]1C(C(=O)c2ccc(Cl)cc2)[C@@H]1/C(=C\C(=O)OCC)OCC (some centres undefined),GI50,KM12,6.87 µM (inactive)
same,GI50,OVCAR-5,30.6 µM (inactive)
same,GI50,MOLT-4,3.98 µM (inactive)
same,GI50,UACC-62,28.8 µM (inactive)
same,GI50,SF-539,22.1 µM (inactive)
same,GI50,K562,2.62 µM (inactive)
same,GI50,M14,14.5 µM (inactive)
same,GI50,SF-268,45 µM (inactive)
same,GI50,HOP-92,2.47 µM (inactive)
same,GI50,ACHN,13.2 µM (inactive)
same,GI50,OVCAR-3,7.57 µM (inactive)
same,GI50,LOX IMVI,24.3 µM (inactive)
same,GI50,PC-3,5.89 µM (inactive)
same,GI50,SK-MEL-2,56.4 µM (inactive)
same,GI50,SNB-75,7.5 µM (inactive)
same,GI50,SN12C,17.7 µM (inactive)
same,GI50,HT-29,7.53 µM (inactive)
same,GI50,HOP-62,14.3 µM (inactive)
same,GI50,SNB-19,11.9 µM (inactive)
same,GI50,CAKI-1,16.9 µM (inactive)
same,GI50,A549,10.9 µM (inactive)
same,GI50,OVCAR-8,6.56 µM (inactive)
same,GI50,SK-MEL-28,41.7 µM (inactive)
same,GI50,UACC-257,6.75 µM (inactive)
same,GI50,786-0,> 33.7 µM (inactive)
same,GI50,NCI-H460,18.6 µM (inactive)
same,GI50,NCI-H23,11.7 µM (inactive)
same,GI50,A498,8.89 µM (inactive)
same,GI50,NCI/ADR-RES,3.6 µM (inactive)
same,GI50,RXF 393,14.3 µM (inactive)
same,GI50,HL-60,3.12 µM (inactive)
same,GI50,TK-10,6.32 µM (inactive)
same,GI50,COLO 205,6.68 µM (inactive)
same,GI50,SF-295,7.98 µM (inactive)
same,GI50,SK-OV-3,27.2 µM (inactive)
same,GI50,SK-MEL-5,4.41 µM (inactive)
same,GI50,CCRF-CEM,5.69 µM (inactive)
same,GI50,NCI-H226,6.27 µM (inactive)
same,GI50,NCI-H522,3.62 µM (inactive)
same,GI50,OVCAR-4,67.3 µM (inactive)
same,GI50,Hs-578T,12.9 µM (inactive)
same,GI50,U-251,4.99 µM (inactive)
same,GI50,MDA-MB-435,6.58 µM (inactive)
same,GI50,SW-620,12.6 µM (inactive)
same,GI50,MDA-N,17.5 µM (inactive)
same,GI50,MCF7,11.2 µM (inactive)
same,GI50,IGROV-1,56.5 µM (inactive)
same,GI50,Malme-3M,16.8 µM (inactive)
same,GI50,HCT-116,5.18 µM (inactive)
same,GI50,RPMI-8226,2.79 µM (inactive)
same,GI50,DU-145,47.1 µM (inactive)
same,GI50,UO-31,4.53 µM (inactive)
same,GI50,T47D,6.01 µM (inactive)
same,GI50,SR,17.7 µM (inactive)
same,GI50,EKVX,14.5 µM (inactive)
same,GI50,HCT-15,> 33 µM
same,GI50,MDA-MB-231,10.1 µM (inactive)
same,GI50,BT-549,48.5 µM (inactive)
